Assays:
[1] = tested on: Drosophila hemocytes; assay: Bafilomycin perturbation of endosomal chloride concentration and pH in hemocytes; type: cell-based
Description: Bafilomycin is used to perturb endosomal Chloride ion concentration [Cl^−] and these perturbations are followed by changes in R/G ratios in Clensor labeled endosomes of Drosophila hemocytes. pH is simultaneously measured in this system by pulsing with about 2 mg/mL 10 kDa FITC-dextran (FD10) for about 5 minutes at room temperature and chased for about 120 minutes at about 20° C. The cells are then incubated with 1×M1 buffer containing about 200 nM Bafilomycin followed by a 120 minute chase at about 20° C. in the same buffer.
Intracellular pH is measured by the Dual Excitation Method. λEx480/λEx 430 emission ratios show about 2.1 fold decrease in pH as a function of time till about 120 minutes post endocytosis, indicating the expected decrease in pH in hemocytes (FIG. 16a, black). Upon Bafilomycin treatment, endosomal pH is reversed as given by gradual increase (˜2.2 fold) in λEx480/λEx 430 emission ratios (FIG. 16a, black). […]
FIG. 16 depicts the integrity of Clensor during endosomal maturation. […] Chloride concentrations and pH values are monitored after Bafilomycin treatment. […] Endosomal pH is monitored by ratios of the intensity at 530 nm when the FITC is excited at 480 nm and 430 nm (λex480/λex 430). […]

[2] = tested on: endosomal compartments of Drosophila hemocytes; assay: Chloride concentration in endosomal compartments of hemocytes under chemical perturbation, measured with Clensor; type: cell-based; details: +NPPB
Description: Hemocytes are washed with 1×M1 buffer (150 mM NaCl, […], 1 mM CaCl2, 1 mM MgCl2, 20 mM HEPES pH 7.2) prior to labeling. Hemocytes are incubated with 2 μM of Clensor sample (diluted in 1×M1 buffer) for 5-10 minutes (depending on the signal again, *for measurements in early endosomes 5 min pulse is given*) and then washed 3-4 times with 1×M1 and then chased for an additional 5 to 120 minutes. For a chase longer than 5 minutes, 1×M1 is replaced by complete insect medium and transferred to a 20° C. incubator. For 5 minute chases, cells are washed and then imaged in 1×M1.
For Chloride ion […] measurement experiments, after pulsing with Clensor, cells are chased for (i) 5 min (Early Endosome), (ii) 60 min (Late endosome) and (iii) 120 min (Lysosome). Each set of cells are then imaged live, acquiring two images for each set of cells. (i) Ex=480/20, Dichroic=500-600 BP, Em=535/40 and (ii) Ex=640/30, Dichroic=665 LP, Em=690/50.
Hemocytes are pulsed with 2 μM of Clensor sample for 30 minutes (for development of a signal), washed 3-4 times with 1×M1 followed by a 5 minute chase in same medium. Cells are then fixed with 200 μL 2.5% paraformaldehyde (PFA) for 20 minutes at room temperature, quickly washed 3 times and retained in 1×M1. To obtain intracellular Chloride ion (Cl^−) calibration curve, perfusate and endosomal Chloride ion (Cl^−) concentration are equalized by incubating the previously fixed cells in 120 mM KCl/KNO3, 20 mM NaCl/NaNO3, 1 mM CaCl2/Ca(NO3)2, 1 mM MgCl2/Mg(NO3)2, and 10 mM HEPES at pH 7.2, with Chloride ion (Cl^−) concentration from about 0-80 mM (NO3^− replacing Cl^−) for about 3 hours at room temperature. Chloride clamping solution contains Nigericin (10 μM)+Valinomycin (10 μM)+CCCP (5 μM)+Monensin (10 μM)+Bafilomycin (200 nM). The cells are imaged in the same buffer.
Here, the hemocytes are treated with a non-specific chloride ion channel blocker NPPB (5-nitro-2-(3-phenylpropylamino)-benzoate).

For Bafilomycin, the “increase in λEx480/λEx 430 emission ratios (reversal of endosomal pH)” value ([1]; 200 nM Bafilomycin, FITC-dextran labeled hemocytes, after 120 min chase) was roughly 2.2 fold and the “change of R/G ratios of Clensor labeled endosomes (endosomal [Cl−])” value ([1]; after 200 nM Bafilomycin treatment) was “R/G ratios gradually decrease”.

For O=C(O)c1cc([N+](=O)[O-])ccc1NCCCc1ccccc1 [NPPB, 5-nitro-2-(3-phenylpropylamino)-benzoate], the “Mean [Cl−] ± s.e.m, EE” value ([2]; early endosomes, 5 min) was 9.3 ± 1.5 mM, the “Mean [Cl−] ± s.e.m, LE” value ([2]; late endosomes, 60 min) was 33.8 ± 2.5 mM and the “Mean [Cl−] ± s.e.m, LY” value ([2]; lysosomes, 120 min) was 86.5 ± 3.5 mM.

Source: patent publication US20170101669A1, “Nucleic Acid Based Sensor and Methods Thereof” (National Centre for Biological Sciences, priority 2014, published 2017)
